Experimental data published in article PMC3329717 (Journal of Medicinal Chemistry, 2012).

How the values were obtained:
[1] = tested on: WEEV replicon
[2] = tested on: WEEV replicon; experiment: microbe, parasite or virus in culture; details: Western equine encephalitis virus, BSR-T7, read-out: IC50, inhibition of luciferase expression in the WEEV replicon assay
[3] = tested on: WEEV; type: cell-based, western equine encephalitis virus
[4] = tested on: NSV; type: cell-based, neuroadapted Sindbis virus
[5] = tested on: WEEV; type: cell-based, western equine encephalitis virus; remark: listed apart in the source
[6] = tested on: NSV; type: cell-based, neuroadapted Sindbis virus; remark: listed apart in the source
[7] = Mouse liver microsome; details: Balb-C, liver microsomes, pH 7.5
[8] = tested on: vaccine strain of Venezuelan equine encephalitis virus (VEEV); details: mouse, in vivo; cited from earlier work
[9] = tested on: wild-type VEEV; details: in vivo; cited from earlier work
[10] = tested on: NSV; design: species or system mice; details: mouse, in vivo
[11] = tested on: NSV; design: species or system mice; details: mouse, in vivo; remark: listed apart in the source
[12] = tested on: NSV; design: species or system mice; details: mouse, in vivo; remark: listed apart in the source
[13] = Parallel Artificial Membrane Permeability Assay; details: PAMPA

| Compound | CC50/IC50 (therapeutic index) [1] | IC50 [2] [µM] | other results |
| --- | --- | --- | --- |
| Cc1ccc(CCNC(=O)C2CCN(C(=O)c3cc4ccccc4n3Cc3ccc(Cl)cc3)CC2)cc1 [Compound 9f, 1-(1-(4-chlorobenzyl)-1H-indole-2-carbonyl)-N-(4-methylphenethyl)piperidine-4-carboxamide] | 14 | 5.5 ± 2.2 |  |
| O=C(NCc1ccncc1)C1CCN(C(=O)c2cc3ccccc3n2Cc2ccc(Cl)cc2)CC1 [Compound 9l, 1-(1-(4-chlorobenzyl)-1H-indole-2-carbonyl)-N-(pyridin-4-ylmethyl)piperidine-4-carboxamide] | >14 | 6.8 ± 1.7 |  |
| C[C@H](NC(=O)C1CCN(C(=O)c2cc3ccccc3n2Cc2ccc(Cl)cc2)CC1)c1ccccc1 [Compound 9g, (S)-1-(1-(4-chlorobenzyl)-1H-indole-2-carbonyl)-N-(1-phenylethyl)piperidine-4-carboxamide] |  | > 100 | Increase in cell viability after WEEV infection (reduction in CPE) [3]: unable to rescue virus-induced CPE; Increase in cell viability after NSV infection (reduction in CPE) [4]: unable to rescue virus-induced CPE; WEEV titers (virion production, plaque assay) [5]: inactive; NSV titers (virion production, plaque assay) [6]: inactive |
| O=C(NCc1ccccc1)C1CCN(C(=O)c2cc3sccc3n2Cc2ccc(F)cc2)CC1 [Compound 5a, N-benzyl-1-(4-(4-fluorobenzyl)-4H-thieno[3,2-b]pyrrole-5-carbonyl)piperidine-4-carboxamide] | >3.9 | 25.4 ± 7.3 |  |
| O=C(NCc1ccccc1)C1CCN(C(=O)c2cc3ccccc3n2Cc2ccc(F)cc2)CC1 [Compound 9a, N-benzyl-1-(1-(4-fluorobenzyl)-1H-indole-2-carbonyl)piperidine-4-carboxamide] | >6.7 | 14.8 ± 5.8 |  |
| C[C@@H](c1ccc(F)cc1)n1c(C(=O)N2CCC(C(=O)NCc3ccccc3)CC2)cc2sccc21 [Compound 5f, (S)-N-benzyl-1-(4-(1-(4-fluorophenyl)ethyl)-4H-thieno[3,2-b]pyrrole-5-carbonyl)piperidine-4-carboxamide] |  | > 100 |  |
| O=C(NCc1ccccc1)C1CCN(C(=O)c2cc3ccccc3n2Cc2ccc(Cl)cc2)CC1 [Compound 9b, N-benzyl-1-(1-(4-chlorobenzyl)-1H-indole-2-carbonyl)piperidine-4-carboxamide] | >6.5 | 15.5 ± 5.6 | WEEV titers (virion production, plaque assay) [5]: significantly reduced; NSV titers (virion production, plaque assay) [6]: significantly reduced; half-life at 1 µM [7]: 7.3 ± 3.9 min |
| COc1ccc(CNC(=O)C2CCN(C(=O)c3cc4ccccc4n3Cc3ccc(Cl)cc3)CC2)cc1 [Compound 9i, 1-(1-(4-chlorobenzyl)-1H-indole-2-carbonyl)-N-(4-methoxybenzyl)piperidine-4-carboxamide] |  | > 50 |  |
| O=C(c1cc2ccccc2n1Cc1ccc(Cl)cc1)N1CCC(C(=O)N2CCCCC2)CC1 [Compound 9k, (1-(4-chlorobenzyl)-1H-indol-2-yl)(4-(piperidine-1-carbonyl)piperidin-1-yl)methanone] | 5.6 | 9.2 ± 2.8 |  |
| O=C(NCc1ccccc1)C1CCCN(C(=O)c2cc3ccccc3n2Cc2ccc(Cl)cc2)C1 (stereo not drawn) [Compound 9c, N-benzyl-1-(1-(4-chlorobenzyl)-1H-indole-2-carbonyl)piperidine-3-carboxamide] | >3.3 | 30.6 ± 7.3 |  |
| NC(=O)c1ncn([C@@H]2O[C@H](CO)[C@@H](O)[C@H]2O)n1 [Ribavirin, reference compound] |  | 16 |  |
| O=C(NCc1cccnc1)C1CCN(C(=O)c2cc3ccccc3n2Cc2ccc(Cl)cc2)CC1 [Compound 9m, 1-(1-(4-chlorobenzyl)-1H-indole-2-carbonyl)-N-(pyridin-3-ylmethyl)piperidine-4-carboxamide] | >8.7 | 11.4 ± 0.4 |  |
| C[C@H](NC(=O)C1CCN(C(=O)c2cc3sccc3n2Cc2ccc(F)cc2)CC1)c1ccccc1 [Compound 5c, (S)-1-(4-(4-fluorobenzyl)-4H-thieno[3,2-b]pyrrole-5-carbonyl)-N-(1-phenylethyl)piperidine-4-carboxamide] |  | > 100 |  |
| (−)-carbodine |  |  | Disease outcome [8]: improved outcome; Lowering of peak CNS viral titers [8]: half-log; Benefit after wild-type VEEV challenge [9]: no benefit |
| C[C@@H](NC(=O)C1CCN(C(=O)c2cc3ccccc3n2Cc2ccc(Cl)cc2)CC1)c1ccccc1 [Compound 9h, (R)-1-(1-(4-chlorobenzyl)-1H-indole-2-carbonyl)-N-(1-phenylethyl)piperidine-4-carboxamide] | 14 | 6.5 ± 1.5 | WEEV titers (virion production, plaque assay) [5]: significantly reduced; NSV titers (virion production, plaque assay) [6]: significantly reduced; Development of severe hind limb paralysis [10]: conferred benefit against the development of severe hind limb paralysis; Pilot survival assays, dose comparison [10]: the higher concentration was more effective; Survival after lethal NSV infection [10]: significantly protected from lethal NSV infection; Viral titers in brain [11]: viral titers were lower; Viral titers in spinal cord [11]: A similar extent of viral inhibition was also observed; Neuronal injury in hippocampus (proportion of fluorojade-positive neurons) [12]: reduced neuronal injury; half-life at 1 µM [7]: 31 ± 7.1 min |
| O=C(Nc1ccccc1)C1CCN(C(=O)c2cc3ccccc3n2Cc2ccc(Cl)cc2)CC1 [Compound 9d, 1-(1-(4-chlorobenzyl)-1H-indole-2-carbonyl)-N-phenylpiperidine-4-carboxamide] |  | > 50 |  |
| O=C(NCCc1ccccc1)C1CCN(C(=O)c2cc3ccccc3n2Cc2ccc(Cl)cc2)CC1 [Compound 9e, 1-(1-(4-chlorobenzyl)-1H-indole-2-carbonyl)-N-phenethylpiperidine-4-carboxamide] | 4.1 | 15.2 ± 9.3 |  |
| O=C(NCc1cccc(Cl)c1)C1CCN(C(=O)c2cc3ccccc3n2Cc2ccc(Cl)cc2)CC1 [Compound 9j, N-(3-chlorobenzyl)-1-(1-(4-chlorobenzyl)-1H-indole-2-carbonyl)piperidine-4-carboxamide] | >6.5 | 15.3 ± 9 |  |
| O=C(NCc1ccccc1)C1CCN(C(=O)c2cc3sccc3n2Cc2ccc(Cl)cc2)CC1 [Compound 5b, N-benzyl-1-(4-(4-chlorobenzyl)-4H-thieno[3,2-b]pyrrole-5-carbonyl)piperidine-4-carboxamide] | >9.9 | 10.1 ± 2.6 | WEEV titers (virion production, plaque assay) [5]: significantly reduced; NSV titers (virion production, plaque assay) [6]: significantly reduced; half-life at 1 µM [7]: 1.7 ± 1.7 min; Papp [13]: 251 ×10⁻⁶ cm/s |
| C[C@H](c1ccc(F)cc1)n1c(C(=O)N2CCC(C(=O)NCc3ccccc3)CC2)cc2sccc21 [Compound 5e, (R)-N-benzyl-1-(4-(1-(4-fluorophenyl)ethyl)-4H-thieno[3,2-b]pyrrole-5-carbonyl)piperidine-4-carboxamide] | >5.4 | 18.4 ± 4.7 |  |
| C[C@@H](NC(=O)C1CCN(C(=O)c2cc3sccc3n2Cc2ccc(F)cc2)CC1)c1ccccc1 [Compound 5d, (R)-1-(4-(4-fluorobenzyl)-4H-thieno[3,2-b]pyrrole-5-carbonyl)-N-(1-phenylethyl)piperidine-4-carboxamide] | 11 | 8.3 ± 1.3 |  |
